Patent publication US20120035135A1, “Treatment of Transgenic Crops with Mixtures of Fiproles and Chloronicotinyls” (Bayer CropScience AG, priority 2008, published 2012)

How the values were obtained:
Assay type in all cases: in vivo
Spodoptera frugiperda [1] = assay: Spodoptera frugiperda test (leaf application) on transgenic cotton; conditions: 24 h, after 1 d
Source text: (§1) The expected activity for a given combination of two (or more) active compounds can be calculated (cf. COLBY, S. R.; “Calculating Synergistic and Antagonistic Responses of Herbicide Combinations”, Weeds 15, pages 20-22, 1967):′
(§2) If • X=the kill rate, expressed in % of the untreated control, when employing active compound A at an application rate of m ppm or m g/ha, • Y=the kill rate, expressed in % of the untreated control, when employing active compound B at an application rate of n ppm or n g/ha, • Z=the kill rate, expressed in % of the untreated control, when employing active compound C at an application rate of r ppm or r g/ha, • E=the kill rate, expressed in % of the untreated control, when employing active compounds A and B and C at application rates of m, n, and r ppm or m, n, and r g/ha, then for a combination of two ore more components
(§3) If the actual insecticidal kill rate is higher than the calculated one, the kill rates of the combination are super additive, i.e. a synergistic effect is present. In this case, the kill rate that is actually observed has to be higher than the value, calculated using the formula above, for the expected kill rate (E).
Transgenic cotton plants containing lepidoptera and herbicide resistance were treated with the respective products against the fall army worm (Spodoptera frugiperda).
(§4) After the specified period of time, the mortality in % is determined. 100% means that all the caterpillars have been killed; 0% means that none of the caterpillars have been killed.

Spodoptera exigua = Spodoptera exigua test (leaf application) on transgenic corn; conditions: 96 h, after 4 d
Source text: as §1, §2, §3
Transgenic corn plants containing lepidoptera, coleoptera and/or herbicide resistance were treated with the respective products against the beet army worm (Spodoptera exigua).
as §4

Spodoptera frugiperda [2] = assay: Spodoptera frugiperda test (leaf application) on transgenic corn; conditions: 96 h, after 4 d
Source text: as §1, §2
as §3, with “(E). […]” for “(E).”
(§5) After the specified period of time, the mortality in % is determined. […]

Spodoptera frugiperda [3] = assay: Spodoptera frugiperda test (drench application) on transgenic corn; conditions: soil, 96 h, after 4 d
Source text: as §1, §2
as §3, with “(E). […]” for “(E).”
as §5

Structure (SMILES)	mortality at 20 ppm (Spodoptera frugiperda [1]) [%]	mortality at 100 ppm (Spodoptera frugiperda [1]; 100 ppm) [%]	mortality at 20 ppm (Spodoptera exigua; 20 ppm) [%]	mortality at 100 ppm (Spodoptera exigua; 100 ppm) [%]	mortality at 100 ppm (Spodoptera frugiperda [2]; 100 ppm) [%]	mortality at 100 ppm (Spodoptera frugiperda [3]; 100 ppm) [%]	mortality at 4 ppm (Spodoptera exigua; 4 ppm) [%]	mortality at 4 ppm (Spodoptera frugiperda [2]; 4 ppm) [%]	mortality at 20 ppm (Spodoptera frugiperda [3]; 20 ppm) [%]
CC[S+]([O-])c1c(C#N)nn(-c2c(Cl)cc(C(F)(F)F)cc2Cl)c1N (stereo not shown) [Ethiprole, ethiprole]	0	–	–	–	–	–	–	–	–
O=[N+]([O-])NC1=NCCN1Cc1ccc(Cl)nc1 [Imidacloprid, imidacloprid]	–	50	0	10	15	0	–	–	–
N#Cc1nn(-c2c(Cl)cc(C(F)(F)F)cc2Cl)c(N)c1[S+]([O-])C(F)(F)F (stereo not shown) [Fipronil, fipronil]	0	–	–	–	–	–	0	15	0
